Assay results from patent US20210369677A1, “SMALL MOLECULE ACTIVATORS OF POLYCYSTIN-2 (PKD2) AND USES THEREOF” (Northwestern University, priority 2020, published 2021).

Assays:
polycystin-2 channels = assay: Inside-out cilia patch of pIMCD cells, calcium opening of polycystin-2 channels; format: cell-based, mouse; settings: Pkd2+/del-Z mice; read-out: EC50, potency of calcium opening polycystin-2 channels
Procedure: Cell culture of primary inner medullary collecting duct cells and immortalized cell lines. Primary inner medullary collecting ducts cells (pIMCD) were isolated from WT or Pkd2^del-Z/del-Z mice co-expressing the ARL13B-EGFP cilia reporter using the previously described method (Liu et al., 2018). Briefly, inner medullae were removed from the kidney and disassociated using a Dulbecco's phosphate buffered solution (DPBS) containing 2 mg/ml collagenase A and 1 mg/ml hyaluronidase. After mechanical disassociation on ice, medullary cells were cultured in Dulbecco's modified essential medium (DMEM) supplemented with 10% fetal bovine serum (FBS) and 100 units/ml penicillin/100 μg/ml streptomycin. Cilia were patched from cells within 6 days after isolation and within one passage. HEK PKD2^Null cell lines were generated using the CRISPR/Cas9 gene editing kit available from Addgene and authenticated using PCR analysis, as previously described (Liu et al., 2018). […]
Electrophysiology. The electrophysiologist was blinded by a third party in the laboratory, where test groups were assigned a letter to conceal the genetic identity of the cells being evaluated. […] Ciliary ion currents were recorded using borosilicate glass electrodes polished to resistances of 14-23 MΩ using the cilium patch method previously described (Vien et al., 2020). Single channel currents measured in the inside-out configuration were recorded in symmetrical sodium concentrations. […] Calcium was buffered with 5 EGTA (ethylene glycol-bis(o-aminoethyl ether)-N,N,N′,N′-tetraacetic acid), 5 Na4-BAPTA (Glycine, N, N′-[1,2-ethanediylbis(oxy-2,1-phenylene)]bis[N-(carboxymethyl)]-,tetrasodium) and 0.5 EDTA […]; free calcium was calculated using Maxchilator and titration of 1 M CaCl2) solution (Bers et al., 2010); pH was adjusted to 7.3 using NaOH. […] Whole cell currents used to measure CDD were also recorded in symmetrical sodium concentration, placing the internal recording solution in the pipette electrode and the external recording solution in the bath. […]

[1] = target: T1, human PKD2 channel proteins (WT or C331S) (Homo sapiens, UniProt Q13563); assay: Thermal stability assay (FSEC) of purified PKD2 channel proteins; settings: 10 mM GSH
T1 construct: purified the C331S variant of polycystin-2 (residues 53-792) protein in amphipols; made in house
T1 sequence (Q13563 53-792 C331S): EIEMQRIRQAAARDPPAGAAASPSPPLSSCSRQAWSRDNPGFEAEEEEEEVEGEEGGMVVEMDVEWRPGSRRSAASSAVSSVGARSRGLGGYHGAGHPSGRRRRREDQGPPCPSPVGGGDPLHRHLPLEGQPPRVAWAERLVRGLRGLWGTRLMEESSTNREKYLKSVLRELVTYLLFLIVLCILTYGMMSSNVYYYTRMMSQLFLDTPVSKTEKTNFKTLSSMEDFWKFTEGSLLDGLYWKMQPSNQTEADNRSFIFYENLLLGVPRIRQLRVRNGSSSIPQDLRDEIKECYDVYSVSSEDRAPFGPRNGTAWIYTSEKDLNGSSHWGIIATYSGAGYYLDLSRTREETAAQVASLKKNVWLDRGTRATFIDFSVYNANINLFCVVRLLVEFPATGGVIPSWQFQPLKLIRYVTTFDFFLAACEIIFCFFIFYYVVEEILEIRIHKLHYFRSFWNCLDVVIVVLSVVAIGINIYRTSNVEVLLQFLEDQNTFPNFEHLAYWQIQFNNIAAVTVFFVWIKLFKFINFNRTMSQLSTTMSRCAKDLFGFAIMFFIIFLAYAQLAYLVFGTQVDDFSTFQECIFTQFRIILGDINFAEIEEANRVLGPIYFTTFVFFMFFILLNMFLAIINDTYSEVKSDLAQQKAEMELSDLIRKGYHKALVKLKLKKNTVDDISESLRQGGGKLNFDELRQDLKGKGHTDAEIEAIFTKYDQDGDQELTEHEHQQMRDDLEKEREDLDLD
Procedure: Thermal stability assay. Approximately 9 μg of purified human PKD2 channel proteins (WT or C331S) in 30 μl buffer composed of 20 mM HEPES 150 mM NaCl, 2 mM CaCl2), 0.5 mM TCEP and 0.5 mM DDM (n-Dodecyl β-D-maltoside), at pH 7.4, were incubated at 4° C.-90° C. (4° C., room temperature, 30° C., 35.2° C., 39.3° C., 44.9° C., 49° C., 54° C., 60° C., 65.5° C., 69.4° C., 75° C., 79.3° C., 84° C., and 90° C.) for 10 minutes in a thermal cycler. To reduce the C331-C344 disulfide bond in the PKD2 channel, 10 mM GSH was added to all the buffers during purification and thermal stability assay. The treated channel samples were then diluted 10 times with the same buffer followed by centrifugation for 30 min at 40,000 rpm. 30 μl of each cleared channel samples were separated on an analytical size exclusion column (Superose™ 6 5/150 GL, GE Healthcare) at 0.3 ml/min flow rate. Proteins were detected by Tryptophan fluorescence. The FSEC-based thermostability experiments were performed in triplicates for each temperature point. The integrated area of the channel tetramer peak at different temperature points is normalized to that at 4° C. to generate the thermal stability plot.
We tested the thermal stability of PKD2 and the C331S variant in the presence or absence of NS1643. (See FIG. 33). We also performed Rosetta modeling. (See FIG. 35).

Structure (SMILES)	EC50 (polycystin-2 channels)	Thermal denaturation of polycystin-2 channel protein under reducing conditions [1]
[Ca+2] [Ca^2+, calcium]	1400 ± 400 nM	–
N[C@@H](CCC(=O)N[C@@H](CS)C(=O)NCC(=O)O)C(=O)O [GSH, reduced glutathione]	–	denaturing at lower temperatures
